Values joined by “and” are separate entries in the source; they are usually repeats but may differ in a detail not shown here. Equal entries are not always repeated.
Experiments:
[1] = Surfactant stability: change in lauric acid concentration of surfactant solutions after 65 C for 1 month vs baseline (HPLC/MS/MS); type: physicochemical; details: for Delta % lauric acid/Anionic Surfactant Conc.: 65 C 1 month; for Delta % lauric acid/Co Surfactant Conc.: 8.0% co surfactant alone, 65 C 1 month vs as made at about 25 C
Description: Lowering the personal care composition's pH is a key driver of hydroxy acid delivery to the hair and the skin under the hair. However, lowering pH reduces the options of suitable anionic surfactants free-of sulfates as many are susceptible to hydrolysis. Therefore, surfactant stability is analyzed by measuring the change in lauric acid concentration of surfactant solutions after exposure to high temperature (65 C) for 1 month and at range of pH vs. baseline conditions (surfactant solutions as made at ambient temperature of about 25 C). As shown in the table below, the Taurate surfactants are less susceptible to degradation at lower pH and (rows 8-10, 17-21 and 30-33) vs. other common amino acid based anionic surfactants (Sarcosinate, Alaninate, Glutamate, Glycinate, and Isethionate).
Approximately 10 mg of each sample is weighed into a vial and 10 mL of isopropanol (IPA) added and mixed. An aliquot of the diluted sample (0.1 mL) is then transferred into an autosampler vial containing stable-isotope-labeled (D23 lauric acid) internal standard (ISTD) and diluent (85/15 IPA/water, 0.9 mL). A set of lauric acid standards is prepared over an appropriate calibration range in diluent and spiked with ISTD. The standards and samples are analyzed using gradient reversed-phase high performance liquid chromatography with tandem mass spectrometry (HPLC/MS/MS). Lauric acid and the ISTD are monitored by negative ion electrospray (ESI) using “pseudo” selected reaction monitoring (i.e., a precursor-to-precursor transition with no mass loss). A standard curve is constructed by plotting the peak area ratio (peak area lauric acid/peak area ISTD) for each standard versus lauric acid concentration. The amount of lauric acid in the calibration standards and diluted samples is back-calculated using the generated regression equation. The result is reported as the mass of lauric acid per g of sample (% Lauric Acid).

forearm skin = test: Surfactant mildness forearm study, GPSkin device, TEWL; type: in vivo; details: Sodium Methyl Cocoyl Taurate at 2.5% vs Sodium Lauryl Sulfate at 9.0%, pH 3.0 compositions
Description: • Method. A simple forearm study design approach is leveraged to screen prototypes for skin health benefits. GPSkin devices from GPOWER Inc. are used to monitor skin health over the duration of the study. Baseline GPSkin health measures are taken on day 1 followed by product treatment and rinse. This procedure is repeated over three consecutive days and two treatments are evaluated. n=7

[2] = 7.0% Cocamidopropyl Betaine + 3.0% anionic surfactant, pH 4.5
[3] = 7.0% Cocamidopropyl Betaine + 3.0% anionic surfactant, pH 5.2
[4] = 7.0% Cocamidopropyl Betaine + 3.0% anionic surfactant, pH 5.8
[5] = 7.0% Cocamidopropyl Betaine + 3.0% anionic surfactant, pH 6.5

Molecule: CCCCCCCCCCCC(=O)OC(C)CS(=O)(=O)[O-].[Na+] (centres unmarked) [Sodium Lauroyl Methyl Isethionate]
- Delta % lauric acid/Anionic Surfactant Conc. [1, 2]: 16.097%
- Delta % lauric acid/Anionic Surfactant Conc. [1, 3]: 5.262%
- Delta % lauric acid/Anionic Surfactant Conc. [1, 4]: 2.867%
- Delta % lauric acid/Anionic Surfactant Conc. [1, 5]: 3.002%

Molecule: Cocamidopropyl Betaine
- Delta % lauric acid/Co Surfactant Conc. ([1]; pH 5.2): 0.130%
- Delta % lauric acid/Co Surfactant Conc. ([1]; pH 5.8): 0.216%
- Delta % lauric acid/Co Surfactant Conc. ([1]; pH 6.5): 0.187% and 0.154%

Molecule: Sodium cocoyl alaninate
- Delta % lauric acid/Anionic Surfactant Conc. [1, 2]: 9.905%
- Delta % lauric acid/Anionic Surfactant Conc. [1, 3]: 5.890%
- Delta % lauric acid/Anionic Surfactant Conc. [1, 4]: 2.058%
- Delta % lauric acid/Anionic Surfactant Conc. [1, 5]: 1.097%
- Delta % lauric acid/Anionic Surfactant Conc. ([1]; 8.0% anionic surfactant alone, pH 5.2): 5.735%
- Delta % lauric acid/Anionic Surfactant Conc. ([1]; 8.0% anionic surfactant alone, pH 5.6): 2.086%
- Delta % lauric acid/Anionic Surfactant Conc. ([1]; 8.0% anionic surfactant alone, pH 6.3): 0.729%

Molecule: Sodium cocoyl glycinate
- Delta % lauric acid/Anionic Surfactant Conc. [1, 2]: 12.626%
- Delta % lauric acid/Anionic Surfactant Conc. [1, 3]: 7.971%
- Delta % lauric acid/Anionic Surfactant Conc. [1, 4]: 1.791%
- Delta % lauric acid/Anionic Surfactant Conc. [1, 5]: 0.619%

Molecule: Sodium cocoyl isethionate
- Delta % lauric acid/Anionic Surfactant Conc. [1, 3]: 7.379%
- Delta % lauric acid/Anionic Surfactant Conc. ([1]; 7.0% Cocamidopropyl Betaine + 3.0% anionic surfactant, pH 5.7): 4.277%
- Delta % lauric acid/Anionic Surfactant Conc. ([1]; 7.0% Cocamidopropyl Betaine + 3.0% anionic surfactant, pH 6.4): 3.124%

Molecule: Sodium cocoyl taurate
- Delta % lauric acid/Anionic Surfactant Conc. [1, 2]: 1.076%
- Delta % lauric acid/Anionic Surfactant Conc. [1, 3]: 0.135%
- Delta % lauric acid/Anionic Surfactant Conc. [1, 4]: −0.276%
- Delta % lauric acid/Anionic Surfactant Conc. [1, 5]: 0.024%

Molecule: Sodium methyl cocoyl taurate
- mildness on forearm skin (forearm skin): milder on forearm skin than Sodium Lauryl Sulfate at 9.0%
- Delta % lauric acid/Anionic Surfactant Conc. [1, 3]: 1.005% and 1.220% and 1.468%
- Delta % lauric acid/Anionic Surfactant Conc. [1, 4]: 0.689%
- Delta % lauric acid/Anionic Surfactant Conc. [1, 5]: 0.510%
- Delta % lauric acid/Anionic Surfactant Conc. ([1]; 8.0% anionic surfactant alone, pH 5.1): 0.218%
- Delta % lauric acid/Anionic Surfactant Conc. ([1]; 8.0% anionic surfactant alone, pH 5.8): 0.026%
- Delta % lauric acid/Anionic Surfactant Conc. ([1]; 8.0% anionic surfactant alone, pH 6.5): 0.223%

Source: patent publication US20240299275A1, “HYDROXY ACIDS FOR SCALP AND HAIR IN SULFATE FREE PERSONAL CARE COMPOSITIONS” (The Procter & Gamble Company, priority 2023, published 2024)
